Values of other authors, collected in patent US20050063990A1, “Compositons and methods for weight loss” (priority 2003, published 2005).

Key:
[1] = animal studies (mice fed CLA)

conjugated linoleic acid [CLA]
increase in use of fat as fuel (energy expenditure) [1]: 74%
abdominal fat (men classified as abdominally obese): decrease abdominal fat
total fat mass (overweight and obese humans): reduces total fat mass
